Where two headings read alike, the source gives them in different places. Peptide text beside a SMILES is read from it.

As usually defined, the Ki is a dissociation constant, usually derived from enzyme kinetics or from competition with a known ligand. A word on the inhibition: it is the percentage by which the read-out fell short of the control. A higher inhibition goes with a response far below the control. As a reminder, the EC50 is the concentration at which the effect is half-maximal. The low end stands for an effect from little substance, the high end for a need for much substance.

The target of assay [1] is T1, Angiotensin-converting enzyme (ACE) from rabbit lung (Oryctolagus cuniculus, UniProt P12822).
T1 construct: Angiotensin-converting enzyme (ACE) from rabbit lung (A6778); purchased Sigma-Aldrich A6778; host or cells: rabbit lung (tissue-derived enzyme)
T1 sequence (P12822 34-1310): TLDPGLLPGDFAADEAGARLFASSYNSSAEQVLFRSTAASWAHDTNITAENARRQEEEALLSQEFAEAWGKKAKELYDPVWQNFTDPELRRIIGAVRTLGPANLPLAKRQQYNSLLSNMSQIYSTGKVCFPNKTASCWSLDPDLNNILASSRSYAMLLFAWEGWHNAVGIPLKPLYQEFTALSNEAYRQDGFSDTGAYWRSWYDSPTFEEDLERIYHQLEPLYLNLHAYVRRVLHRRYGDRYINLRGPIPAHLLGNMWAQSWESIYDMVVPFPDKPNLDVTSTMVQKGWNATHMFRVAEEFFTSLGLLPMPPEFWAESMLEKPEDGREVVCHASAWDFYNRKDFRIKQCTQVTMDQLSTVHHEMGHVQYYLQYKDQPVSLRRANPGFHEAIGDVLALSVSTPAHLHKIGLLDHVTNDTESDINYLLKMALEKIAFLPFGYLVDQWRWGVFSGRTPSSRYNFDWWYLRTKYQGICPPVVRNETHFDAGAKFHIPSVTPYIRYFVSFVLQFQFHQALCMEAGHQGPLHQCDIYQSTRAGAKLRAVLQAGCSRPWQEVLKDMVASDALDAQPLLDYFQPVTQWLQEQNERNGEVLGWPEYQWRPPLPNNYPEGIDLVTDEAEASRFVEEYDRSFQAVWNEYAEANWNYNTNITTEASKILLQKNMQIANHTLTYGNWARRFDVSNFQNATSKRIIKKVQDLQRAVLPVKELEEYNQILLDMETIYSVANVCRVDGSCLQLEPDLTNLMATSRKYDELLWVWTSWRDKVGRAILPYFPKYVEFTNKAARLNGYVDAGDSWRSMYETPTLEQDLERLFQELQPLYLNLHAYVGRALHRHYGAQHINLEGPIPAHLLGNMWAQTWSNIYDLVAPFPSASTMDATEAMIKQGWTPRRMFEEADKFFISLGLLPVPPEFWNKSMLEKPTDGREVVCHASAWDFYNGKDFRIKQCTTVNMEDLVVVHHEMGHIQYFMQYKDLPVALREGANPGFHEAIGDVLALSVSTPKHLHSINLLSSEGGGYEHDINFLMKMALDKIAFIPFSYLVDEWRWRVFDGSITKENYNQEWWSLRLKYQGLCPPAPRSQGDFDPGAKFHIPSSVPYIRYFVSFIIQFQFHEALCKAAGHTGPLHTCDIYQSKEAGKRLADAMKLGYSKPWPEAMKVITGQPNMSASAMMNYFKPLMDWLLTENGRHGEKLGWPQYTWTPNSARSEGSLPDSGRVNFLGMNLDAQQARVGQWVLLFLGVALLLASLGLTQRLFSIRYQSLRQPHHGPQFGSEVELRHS
Put plainly: ACE inhibition kinetics (Lineweaver-Burk and secondary plots). Type of assay: biochemical. The conditions noted are these: HHL 0.5–2 mM, read-out: inhibition constant (Ki). Here is the method:
A kinetic study was performed following the procedure of Barbana et al. (2011)[23] to determine the inhibition pattern of four faba bean peptides with ACE inhibition activity (VIPTEPPH, VIPTEPPHA, VVIPTEPPHA, and VVIPTEPPH). The initial rate of reaction was measured with different HHL (0.5–2 mM) and peptides concentrations. Lineweaver–Burk double reciprocal plots were built to identify the inhibition pattern.
The ACE inhibition pattern of VIPTEPPH, VIPTEPPHA, VVIPTEPPHA, and VVIPTEPPH was assessed through kinetic experiments. The initial velocity of reaction was measured at different substrate (0.5–2 mM) and peptide concentrations, and Lineweaver–Burk double reciprocal plots were built to identify the inhibition pattern. […] The inhibitor binding site is, therefore, located outside the enzyme active site. The loss of ACE activity in the presence of peptides can, therefore, be explained by conformational changes caused by peptide binding rather than competition for the active site.
The inhibition constant (Ki) was calculated from secondary plots for each peptide. The secondary plots were constructed by plotting the Lineweaver–Burk curve slope against the peptide concentration. The Ki value was calculated from the negative intercept on the X-axis of the secondary plot. […] These Ki values are nearly identical to the IC50, confirming the noncompetitive inhibition pattern. The minor differences in the IC50 and Ki values can be explained by experimental imprecision.

For assay [2], the target named is T1, Angiotensin-converting enzyme (ACE) from rabbit lung. Description: in vitro ACE inhibitory activity (HHL substrate). Type of assay: biochemical. The conditions noted are these: for IC50: mean ± SD; for inhibition at 10000 µM: peptide concentration 10 mM. The source says: Angiotensin-converting enzyme (ACE) from rabbit lung (A6778), N-hippuryl–His–Leu hydrate (HHL) (H1635), and captopril were purchased from Sigma-Aldrich (St. Louis, MO, USA).
ACE from rabbits was used for in vitro testing, since rabbit and human ACE are nearly homologous and their active sites are highly similar.[24]

For assay [3] the following is noted: free amino acids; cited from earlier work.
Assay [4] in a line: ABTS free radical scavenging assay. The conditions noted are these: for ABTS activity, times lower than Trolox: range over the named peptides.
Experimental: (§1) For the DPPH, ABTS, and iron chelating assays, the peptides were first screened at a high dose (10 mM). […] The EC50 values were calculated using a four-parameter logistic curve regression, and Trolox was used as a positive control. For the ORAC assay, the results were expressed as μmol of Trolox equivalent per mM of peptides.
Assay [5] in a line: Oxygen Radical Absorption Capacity (ORAC) assay. The conditions noted are these: for ORAC activity per mg of peptides: as given in the text; for ORAC activity, times higher than Trolox: on a molar basis, range over the named peptides. How it is done:
2,2-Diphenyl-1-picrylhydrazyl (DPPH), 2,2′-azinobis(3-ethylbenzothiazoline-6-sulfonic acid) (ABTS), Oxygen Radical Absorption Capacity (ORAC), and the iron chelating assays were performed following the methods of Orona-Tamayo, Valverde, Nieto-Rendón, and Paredes-López (2015),[17] Re, Pellegrini, Proteggente, Pannala, Yang, and Rice-Evans (1999),[18] Tomer, McLeman, Ohmine, Scherer, Murray, and O’Neill (2007),[19] and of Orona-Tamayo et al. (2015),[17] respectively, as described in Martineau-Côté, Achouri, Wanasundara et al. (2022).[16] For the DPPH, ABTS, and iron chelating assays, the peptides were first screened at a high dose (10 mM). Peptides with antioxidant activity were then tested at different concentrations (0.1–10 mM) to evaluate the dose–response effect. The results were expressed as the half-maximal effective concentration (EC50), which was defined as the required peptide concentration, leading to 50% scavenging or chelating activity. The EC50 values were calculated using a four-parameter logistic curve regression, and Trolox was used as a positive control. For the ORAC assay, the results were expressed as μmol of Trolox equivalent per mM of peptides.

Assay [6] is described as follows: DPPH free radical scavenging assay. The conditions noted are these: mean ± SD; tested at 0.1–10 mM. (In general: DPPH is a stable violet radical that fades when it is reduced.)
Experimental: as §1
The mark [7] stands for this setting: read-out: ACE Inhibition (IC50 μM).
The mark [8] stands for this setting: read-out: ACE Inhibition (IC50 μg/mL) (converted).

As to `CC[C@H](C)[C@H](NC(=O)[C@@H](N)C(C)C)C(=O)N1CCC[C@H]1C(=O)N[C@H](C(=O)N[C@@H](CCC(=O)O)C(=O)N1CCC[C@H]1C(=O)N1CCC[C@H]1C(=O)N[C@@H](Cc1c[nH]cn1)C(=O)N[C@@H](C)C(=O)O)[C@@H](C)O` [VIPTEPPHA] (H-VIPTEPPHA-OH), in assay [1], the Ki is 107 µM. Moreover, the IC50 was 123 ± 5 µM in assay [2] (setting [7]) and 123 µM in assay [2] (setting [8]). This molecule returned an inhibition at 10000 µM in assay [2] of 100%.

As to `CC[C@H](C)[C@H](NC(=O)[C@@H](N)C(C)C)C(=O)N1CCC[C@H]1C(=O)N[C@H](C(=O)N[C@@H](CCC(=O)O)C(=O)N1CCC[C@H]1C(=O)N1CCC[C@H]1C(=O)N[C@@H](Cc1c[nH]cn1)C(=O)O)[C@@H](C)O` [VIPTEPPH] (H-VIPTEPPH-OH), in assay [1], the Ki was found to be 87 µM. In addition, the IC50 was 90 ± 10 µM in assay [2] (setting [7]) and 91.1 µM in assay [2] (setting [8]). The molecule also gave an inhibition at 10000 µM in assay [2] of 100%.

Take `CC[C@H](C)[C@H](NC(=O)[C@@H](NC(=O)[C@@H](N)C(C)C)C(C)C)C(=O)N1CCC[C@H]1C(=O)N[C@H](C(=O)N[C@@H](CCC(=O)O)C(=O)N1CCC[C@H]1C(=O)N1CCC[C@H]1C(=O)N[C@@H](Cc1c[nH]cn1)C(=O)N[C@@H](C)C(=O)O)[C@@H](C)O` [VVIPTEPPHA] (H-VVIPTEPPHA-OH): the Ki in assay [1] stood at 54 µM. The IC50 in assay [2] (setting [7]) was 50 ± 5 µM; in assay [2] (setting [8]), 50 µM. In addition, in assay [2], at 10000 µM the inhibition was 100%.

As for `CC[C@H](C)[C@H](NC(=O)[C@@H](NC(=O)[C@@H](N)C(C)C)C(C)C)C(=O)N1CCC[C@H]1C(=O)N[C@H](C(=O)N[C@@H](CCC(=O)O)C(=O)N1CCC[C@H]1C(=O)N1CCC[C@H]1C(=O)N[C@@H](Cc1c[nH]cn1)C(=O)O)[C@@H](C)O` [VVIPTEPPH] (H-VVIPTEPPH-OH), the Ki in assay [1] was 45 µM. Also, the figures for the IC50 in assay [2] (setting [7]) and in assay [2] (setting [8]) were 43 ± 1 µM and 43.5 µM, respectively. In assay [2], this molecule returned an inhibition at 10000 µM of 100%.

Take `N[C@@H](Cc1c[nH]cn1)C(=O)O` [histidine]: the ORAC activity in assay [3] is given as 78 μMol TE eq/mM.

On to `N[C@@H](Cc1c[nH]c2ccccc12)C(=O)O` [tryptophan], for which the ORAC activity in assay [3] was 2790 μMol TE eq/mM.

On to `N[C@@H](Cc1ccc(O)cc1)C(=O)O` [tyrosine], for which the ORAC activity in assay [3] is on record as 1020 μMol TE eq/mM.

For “TETWNPNHPE [synthesized faba bean-derived peptide, parent protein legumin B]”, in assay [4], the “ABTS activity, times lower than Trolox” value is 8 to 66 times. In addition, in assay [5] (as given in the abstract), the ORAC activity amounted to 2.84 ± 0.08 mM Trolox equivalent/mM. Further, in assay [5], the “ORAC activity per mg of peptides” value is reported as 2.3 μMol Trolox eq/mg and the “ORAC activity, times higher than Trolox” value lay in the range of 2.5 to 2.8 times.

As to “TETWNPNHPEL [synthesized faba bean-derived peptide, parent protein legumin B]”, the 50% effective concentration (EC50) in assay [4] (mean ± SD, tested at 0.1–10 mM) worked out at 500 ± 200 µM. The “ABTS activity, times lower than Trolox” value in assay [4] is 8 to 66 times. Besides, the EC50 in assay [6] was 2.1 ± 0.1 mM. In assay [5], the “ORAC activity per mg of peptides” value is given as 1.9 μMol Trolox eq/mg and the “ORAC activity, times higher than Trolox” value was 2.5 to 2.8 times.

The values are drawn from publication PMC10979453, “Antioxidant and Angiotensin-Converting Enzyme Inhibitory Activity of Faba Bean-Derived Peptides After In Vitro Gastrointestinal Digestion: Insight into Their Mechanism of Action” (Journal of Agricultural and Food Chemistry, 2024).
